Source: patent publication US9889146B2, “Benzoxaborole compounds and uses thereof” (priority 2012, dated 2018)
In brackets after ≈: the same amount, converted by molar mass. Read-outs that look alike come from different tables or passages of the source.

Columns and labels:
Type in all cases: cell-based
K. pneumoniae ATCC 13883 = test: Spontaneous frequency of resistance; details: 24 h
Description: (§1) Spontaneous Resistance Frequency was determined in vitro for GSK2251052 and the resistance mutants in E. coli ATCC 25922, K. pneumoniae ATCC 13883, and P. aeruginosa ATCC 27853 strains were characterized. GSK2251052 was prepared as described in U.S. Pat. No. 7,816,344 (the entire contents of which are hereby incorporated by reference herein). LB broth, Mueller Hinton II broth (adjusted), and Difco noble agar were obtained from Becton Dickinson (Cockeysville, Md., USA). M9 minimal broth containing 1×M9 salt, 0.5 μg/ML thiamine, 1 mM MgSO4, 0.1 mM CaCl2, 2% glucose, was obtained from Teknova (Hollister, Calif., USA). Antibacterial agents ciprofloxacin, ceftazidime, chloramphenicol, gentamycin, kanamycin, polymixin B, tobramycin and trimethoprim, and amino acids were obtained from Sigma Chemicals (St. Louis, Mo., USA). Strains were obtained from ATCC (Manassas, Va., USA).
(§2) Selection of resistance to GSK2251052 was attempted by spreading various amounts of bacteria onto MHBII noble agar plates containing 4×MIC (minimum inhibitory concentration) or 10×MIC of GSK2251052. Colonies were counted after 24 hours and 48 hours incubation at 37° C. The resistance of these colonies was confirmed by their ability to grow on plates containing GSK2251052 at either 4× or 10×MIC. Frequency of resistance was determined by dividing the number of resistant mutants by the total number of cells plated as determined by plating dilutions of the overnight culture on LB plates.

E. coli ATCC 25922 = test: Spontaneous frequency of resistance; details: 24 h
Description: as §1, §2

P. aeruginosa ATCC 27853 = test: Spontaneous frequency of resistance; details: 24 h
Description: as §1, §2

[1] = tested on: E. coli ATCC 25922 wild type and mutants; test: MIC, wild type and GSK2251052 resistant mutants; details: Escherichia coli
Description: as §1
(§3) Susceptibility tests were performed following the recommendations for aerobic bacteria (M7-A7) from the Clinical and Laboratories Standards Institute (CLSI).
(§4) Laboratory generated mutants resistant to GSK2251052 contain mutations in the editing domain of LeuRS. Six to ten GSK2251052 resistant colonies of E. coli ATCC 25922, K. pneumoniae ATCC 13883 and P. aeruginosa ATCC 27853 were selected for further analysis and their MICs to GSK2251052 were determined (Table 4-7).

[2] = tested on: P. aeruginosa ATCC 27853 wild type and mutants; test: MIC, wild type and GSK2251052 resistant mutants; details: Pseudomonas aeruginosa
Description: as §1, §3, §4

[3] = tested on: K. pneumoniae ATCC 13883 wild type and mutants; test: MIC, wild type and GSK2251052 resistant mutants; details: Klebsiella pneumoniae
Description: as §1, §3, §4

[4] = tested on: E. coli ATCC 25922, K. pneumoniae ATCC 13883 and P. aeruginosa ATCC 27853; test: MIC, three strains and their mutants summarised; details: MIC in E. coli, P. aeruginosa and K. pneumoniae mutants versus wild-type
Description: as §1, §3, §4
GSK2251052 resistant mutants were not cross-resistant to commercial antibiotics.

S. marcescens (AmpC) = test: microbe, parasite or virus in culture; details: Serratia marcescens
[5] = tested on: Morganella morganii (AmpC); test: microbe, parasite or virus in culture; details: Morganella morganii
E. coli (ESBL) = test: microbe, parasite or virus in culture; details: Escherichia coli
[6] = tested on: Enterobacter cloacae (AmpC); test: microbe, parasite or virus in culture; details: Enterobacter cloacae
Klebsiella spp. (WT) = test: microbe, parasite or virus in culture; details: Klebsiella spp. (WT), 159 isolates; read-out: MIC90
Klebsiella spp. (KPC) = test: microbe, parasite or virus in culture; details: Klebsiella
[7] = tested on: Citrobacter freundii (AmpC); test: microbe, parasite or virus in culture; details: Citrobacter freundii
E. coli (WT) = test: microbe, parasite or virus in culture; details: Escherichia coli; E. coli (WT), 214 isolates; read-out: MIC90
[8] = tested on: Enterobacter aerogenes (AmpC); test: microbe, parasite or virus in culture; details: Klebsiella aerogenes
Enterobacteriaceae = test: organism not typed; details: Enterobacteriaceae, 2029 isolates; read-out: MIC90
Klebsiella spp. (ESBL) = test: microbe, parasite or virus in culture; details: Klebsiella
Proteus vulgaris (WT) = test: microbe, parasite or virus in culture; details: Proteus vulgaris (WT), 41 isolates; read-out: MIC90
Proteus mirabilis (WT) = test: microbe, parasite or virus in culture; details: Proteus mirabilis (WT), 235 isolates; read-out: MIC90
P. aeruginosa = test: In vitro activity against P. aeruginosa clinical isolates; details: P. aeruginosa, 2,008 clinical isolates; GSK2251052 based on potential susceptible breakpoint of ≦4 μg/mL
Description: GSK2251052 was tested for activity against P. aeruginosa, and its activity was compared to other antibiotics of known activity. The results are shown below in Tables 2a and 2b. Of 2,008 clinical isolates tested (from 2009-2010 subjects, of which 40% were from North America) greater than 90% were susceptible to GSK2251052 based on a potential susceptible breakpoint of ≦4 μg/mL.

Providencia spp.(all) = test: microbe, parasite or virus in culture; details: Providencia spp.(all), 68 isolates; read-out: MIC90
[9] = tested on: Enterobacter aerogenes (WT); test: microbe, parasite or virus in culture; details: Klebsiella aerogenes; Enterobacter aerogenes (WT), 199 isolates; read-out: MIC90
[10] = tested on: Enterobacter cloacae (WT); test: microbe, parasite or virus in culture; details: 202 isolates, read-out: MIC90

SMILES	Frequency of Resistance (K. pneumoniae ATCC 13883; 4 X MIC)	Frequency of Resistance (K. pneumoniae ATCC 13883; 10 X MIC)	Frequency of Resistance (E. coli ATCC 25922; 4 X MIC)	Frequency of Resistance (E. coli ATCC 25922; 10 X MIC)	Frequency of Resistance (P. aeruginosa ATCC 27853; 4 X MIC)	Frequency of Resistance (P. aeruginosa ATCC 27853; 10 X MIC)	MIC90 (S. marcescens (AmpC)) [µg/mL]	MIC90 [5] [µg/mL]	MIC90 (E. coli (ESBL)) [µg/mL]	MIC90 (Klebsiella spp. (WT)) [µg/mL]	MIC90 (Klebsiella spp. (KPC)) [µg/mL]	MIC90 [7] [µg/mL]	MIC90 (E. coli (WT)) [µg/mL]	MIC90 [8] [µg/mL]	MIC90 (Enterobacteriaceae) [µg/mL]	MIC90 (Klebsiella spp. (ESBL)) [µg/mL]	MIC90 (Proteus vulgaris (WT)) [µg/mL]	MIC90 (Proteus mirabilis (WT)) [µg/mL]	% susceptible (P. aeruginosa) [%]	MIC90 (Providencia spp.(all)) [µg/mL]	also measured
NC[C@H]1O[C@H](O[C@H]2[C@H](O)[C@@H](O[C@H]3O[C@H](CO)[C@@H](O)[C@H](N)[C@H]3O)[C@H](N)C[C@@H]2N)[C@H](N)C[C@@H]1O [Tobramycin]	1 × 10^−6	5 × 10^−8	1 × 10^−5	4 × 10^−6	1 × 10^−6	9 × 10^−8	–	–	–	–	–	–	–	–	–	–	–	–	–	–	MIC ([1]; ATCC25922, E wt, read-out: MICs): 1 µg/mL (≈ 2.14 µM); MIC ([1]; ATCC25922, read-out: MICs, mutant E 101): 1 µg/mL (≈ 2.14 µM); MIC ([1]; ATCC25922, read-out: MICs, mutant E 102): 2 µg/mL (≈ 4.28 µM); MIC ([1]; ATCC25922, read-out: MICs, mutant E 107): 1 µg/mL (≈ 2.14 µM); MIC ([2]; ATCC27853, P wt., read-out: MICs): 0.5 µg/mL (≈ 1.07 µM); MIC ([2]; ATCC27853, read-out: MICs, mutant P 101): 0.5 µg/mL (≈ 1.07 µM); MIC ([2]; ATCC27853, read-out: MICs, mutant P106): 0.5 µg/mL (≈ 1.07 µM); MIC ([2]; ATCC27853, read-out: MICs, mutant P108): 0.5 µg/mL (≈ 1.07 µM); MIC ([3]; ATCC13883, K wt., read-out: MICs): 0.5 µg/mL (≈ 1.07 µM); MIC ([3]; ATCC13883, read-out: MICs, mutant K 104): 0.5 µg/mL (≈ 1.07 µM); MIC ([3]; ATCC13883, read-out: MICs, mutant K 105): 0.5 µg/mL (≈ 1.07 µM); MIC ([3]; ATCC13883, read-out: MICs, mutant K 107): 0.5 µg/mL (≈ 1.07 µM); MIC ([3]; ATCC13883, read-out: MICs, mutant K 108): 0.5 µg/mL (≈ 1.07 µM); MIC ([3]; ATCC13883, read-out: MICs, mutant K 110): 0.5 µg/mL (≈ 1.07 µM); cross-resistance of GSK2251052 resistant mutants [4]: did not have any significant difference in MIC values than wild-type
C[C@H]1COc2c(N3CCN(C)CC3)c(F)cc3c(=O)c(C(=O)O)cn1c23 [Levofloxacin]	2 × 10^−7	<3 × 10^−9	2 × 10^−8	<5 × 10^−9	1 × 10^−7	<1 × 10^−9	4 (≈ 11.1 µM)	> 16	> 16	4 (≈ 11.1 µM)	> 16	8 (≈ 22.1 µM)	16 (≈ 44.3 µM)	16 (≈ 44.3 µM)	16 (≈ 44.3 µM)	> 16	≤ 5	8 (≈ 22.1 µM)	63.7	> 16	MIC90 [6]: 16 µg/mL (≈ 44.3 µM); MIC90 [9]: ≤ 0.5 µg/mL; MIC90 [10]: ≤ 0.5 µg/mL
CO/N=C(\C(=O)N[C@@H]1C(=O)N2C(C(=O)[O-])=C(C[N+]3(C)CCCC3)CS[C@H]12)c1csc(N)n1 [Cefepime]	–	–	–	–	–	–	8 (≈ 16.6 µM)	> 32	> 32	≤ 1	> 32	16 (≈ 33.3 µM)	≤ 1	8 (≈ 16.6 µM)	4 (≈ 8.32 µM)	> 32	≤ 1	≤ 1	75.3	> 32	MIC90 [9]: ≤ 1 µg/mL
C[C@@H](O)[C@H]1C(=O)N2C(C(=O)O)=C(S[C@@H]3CN[C@H](C(=O)N(C)C)C3)[C@H](C)[C@H]12 [Meropenem]	<3 × 10^−9	<3 × 10^−9	<4 × 10^−9	<4 × 10^−9	7 × 10^−7	<1 × 10^−9	–	–	–	–	–	–	–	–	–	–	–	–	79.3	–	–
